Experimental data reported in ChEMBL document CHEMBL5046263, “Characterization of the Aminosugar Biosynthetic and Regulatory Genes of Vicenistatin in Monodonata labio-Associated Streptomyces parvus SCSIO Mla-L010” (J Nat Prod, 2022).
Converted amounts (≈) assume the structure as drawn.

What was measured:
[1] = tested on: Helicobacter pylori; experiment: Antibacterial activity against Helicobacter pylori G27 assessed as bacterial growth inhibition; type: functional
[2] = tested on: Staphylococcus aureus; experiment: Antibacterial activity against Staphylococcus aureus ATCC 29213 assessed as bacterial growth inhibition; type: functional
[3] = tested on: Cryptococcus neoformans; experiment: Antifungal activity against Cryptococcus neoformans ATCC4906 assessed as fungal growth inhibition; type: functional
[4] = tested on: RKO; experiment: Cytotoxicity against human RKO cells assessed as reduction in cell viability after 72 hrs by MTT assay; type: functional, cell-based
[5] = tested on: Candida albicans; experiment: Antifungal activity against Candida albicans ATCC SC5314 assessed as fungal growth inhibition; type: functional
[6] = tested on: Staphylococcus aureus; experiment: Antibacterial activity against methicillin-resistant Staphylococcus aureus 718306 assessed as bacterial growth inhibition; type: functional
[7] = tested on: Staphylococcus aureus; experiment: Antibacterial activity against methicillin-resistant Staphylococcus aureus 745524 assessed as bacterial growth inhibition; type: functional
[8] = Cytotoxicity against human BEAS-2B cells assessed as reduction in cell viability after 72 hrs by MTT assay; type: toxicity, cell-based
[9] = tested on: HeLa; experiment: Cytotoxicity against human HeLa cells assessed as reduction in cell viability after 72 hrs by MTT assay; type: functional, cell-based
[10] = tested on: MCF7; experiment: Cytotoxicity against human MCF7 cells assessed as reduction in cell viability after 72 hrs by MTT assay; type: functional, cell-based; conditions: MCF7, 72 h
[11] = tested on: Candida albicans; experiment: Antifungal activity against Candida albicans C5 assessed as fungal growth inhibition; type: functional
[12] = tested on: Staphylococcus aureus; experiment: Antibacterial activity against methicillin-resistant Staphylococcus aureus 16162 assessed as bacterial growth inhibition; type: functional
[13] = tested on: Mycolicibacterium smegmatis; experiment: Antibacterial activity against Mycobacterium smegmatis ATCC607 assessed as bacterial growth inhibition; type: functional
[14] = tested on: Micrococcus luteus; experiment: Antibacterial activity against Micrococcus luteus ML01 assessed as bacterial growth inhibition; type: functional
[15] = tested on: Staphylococcus aureus; experiment: Antibacterial activity against methicillin-resistant Staphylococcus aureus 6917 assessed as bacterial growth inhibition; type: functional
[16] = tested on: Staphylococcus aureus; experiment: Antibacterial activity against methicillin-resistant Staphylococcus aureus 16339 assessed as bacterial growth inhibition; type: functional
[17] = tested on: Bacillus subtilis; experiment: Antibacterial activity against Bacillus subtilis BS01 assessed as bacterial growth inhibition; type: functional
[18] = Cytotoxicity against human L02 cells assessed as reduction in cell viability after 72 hrs by MTT assay; type: toxicity, cell-based
[19] = tested on: Staphylococcus aureus; experiment: Antibacterial activity against methicillin-resistant Staphylococcus aureus shhs-E1 assessed as bacterial growth inhibition; type: functional
[20] = tested on: HL-60; experiment: Cytotoxicity against human HL-60 cells assessed as reduction in cell viability after 72 hrs by MTT assay; type: functional, cell-based; conditions: HL-60, 72 h
[21] = tested on: HepG2; experiment: Cytotoxicity against human HepG2 cells assessed as reduction in cell viability after 72 hrs by MTT assay; type: functional, cell-based; conditions: HepG2, 72 h
[22] = tested on: Helicobacter pylori; experiment: Antibacterial activity against Helicobacter pylori 159 assessed as bacterial growth inhibition; type: functional
[23] = tested on: A549; experiment: Cytotoxicity against human A549 cells assessed as reduction in cell viability by after 72 hrs MTT assay; type: functional, cell-based; conditions: A549, 72 h

Row | Structure (SMILES) | MIC [1] | MIC [2] | MIC [3] | IC50 [4] | MIC [5] | MIC [6] | MIC [7] | IC50 at 72 h [8] | IC50 [9] | IC50 [10] | MIC [11] | MIC [12] | MIC [13] | MIC [14] | MIC [15] | MIC [16] | MIC [17] | IC50 at 72 h [18] | MIC [19] | MIC [22] | also measured
1 | C/C1=C\C=C\CC[C@H](C)CNC(=O)/C=C/C=C/[C@H](C)[C@@H](O[C@H]2C[C@H](O)[C@H](N)[C@@H](C)O2)C/C=C(\C)C1 | 1 µg/mL (≈ 2.05 µM) | 0.13 µg/mL (≈ 0.267 µM) | 2 µg/mL (≈ 4.11 µM) | 2100 nM | 1 µg/mL (≈ 2.05 µM) | 0.25 µg/mL (≈ 0.514 µM) | 0.25 µg/mL (≈ 0.514 µM) | 3230 nM | 1290 nM | 1160 nM | 2 µg/mL (≈ 4.11 µM) | 0.25 µg/mL (≈ 0.514 µM) | 4 µg/mL (≈ 8.22 µM) | 0.25 µg/mL (≈ 0.514 µM) | 0.13 µg/mL (≈ 0.267 µM) | 0.5 µg/mL (≈ 1.03 µM) | 0.5 µg/mL (≈ 1.03 µM) | 5360 nM | 0.25 µg/mL (≈ 0.514 µM) | 1 µg/mL (≈ 2.05 µM) | IC50 [20]: 890 nM; IC50 [21]: 2090 nM; IC50 [23]: 1330 nM
2 | C[C@@H]1[C@H](O)[C@@H](C)/C=C/C=C/C=C/C=C/C=C/C=C/C=C/[C@H](O[C@@H]2O[C@H](C)[C@@H](O)[C@H](N)[C@@H]2O)C[C@@H]2O[C@](O)(C[C@@H](O)C[C@@H](O)[C@H](O)CC[C@@H](O)C[C@@H](O)CC(=O)O[C@H]1C)C[C@H](O)[C@H]2C(=O)O [AMPHOTERICIN B] |  |  | 2 µg/mL (≈ 2.16 µM) |  | 1 µg/mL (≈ 1.08 µM) |  |  |  |  |  | 1 µg/mL (≈ 1.08 µM) |  |  |  |  |  |  |  |  |  | 
3 | CC1(C)S[C@@H]2[C@H](NC(=O)[C@H](N)c3ccccc3)C(=O)N2[C@H]1C(=O)O [AMPICILLIN] | 4 µg/mL (≈ 11.4 µM) |  |  |  |  |  |  |  |  |  |  |  | 64 µg/mL (≈ 183 µM) |  |  |  |  |  |  | 4 µg/mL (≈ 11.4 µM) | 
4 | CN[C@H](CC(C)C)C(=O)N[C@H]1C(=O)N[C@@H](CC(N)=O)C(=O)N[C@H]2C(=O)N[C@H]3C(=O)N[C@H](C(=O)N[C@H](C(=O)O)c4cc(O)cc(O)c4-c4cc3ccc4O)[C@H](O)c3ccc(c(Cl)c3)Oc3cc2cc(c3O[C@@H]2O[C@H](CO)[C@@H](O)[C@H](O)[C@H]2O[C@H]2C[C@](C)(N)[C@H](O)[C@H](C)O2)Oc2ccc(cc2Cl)[C@H]1O [VANCOMYCIN] |  |  |  |  |  | 0.25 µg/mL (≈ 0.173 µM) |  |  |  |  |  |  |  | 0.13 µg/mL (≈ 0.0897 µM) |  |  | 0.13 µg/mL (≈ 0.0897 µM) |  |  |  | 
5 | CN[C@H]1[C@@H](O)C[C@H](O[C@H]2C/C=C(\C)C/C(C)=C/C=C/CC[C@H](C)CNC(=O)/C=C/C=C/[C@@H]2C)O[C@@H]1C [VICENISTATIN] | 1 µg/mL (≈ 2 µM) | 0.06 µg/mL (≈ 0.12 µM) | 2 µg/mL (≈ 3.99 µM) | 2330 nM | 4 µg/mL (≈ 7.99 µM) | 0.13 µg/mL (≈ 0.26 µM) | 0.06 µg/mL (≈ 0.12 µM) | 1400 nM | 1380 nM | 800 nM | 4 µg/mL (≈ 7.99 µM) | 0.13 µg/mL (≈ 0.26 µM) | > 64 µg/mL | 0.06 µg/mL (≈ 0.12 µM) | 0.06 µg/mL (≈ 0.12 µM) | 0.06 µg/mL (≈ 0.12 µM) | 0.13 µg/mL (≈ 0.26 µM) | 890 nM | 0.13 µg/mL (≈ 0.26 µM) | 1 µg/mL (≈ 2 µM) | IC50 [20]: 640 nM; IC50 [21]: 2010 nM; IC50 [23]: 760 nM
